In patent US6927229B2 (dated 2005):

A melting point of 126 to 128 °C was found for `O=C1O[C@@H](CNC(=S)C(F)F)CN1c1cc(F)c(C2CCS(=O)(=O)CC2)c(F)c1` in this work. A melting point of 126 to 127 °C was found for `O=C1O[C@@H](CNC(=S)C(F)F)CN1c1ccc(N2CCS(=O)(=O)CC2)cc1` in this work. A melting point of 88 to 90 °C was found for `O=C1O[C@@H](CNC(=S)C(F)F)CN1c1cc(F)c(N2CCS(=O)(=O)CC2)c(F)c1` in this work. A melting point of 155 to 156 °C was found for `O=C1O[C@@H](CNC(=S)C(F)F)CN1c1ccc(N2CC[S+]([O-])CC2)cc1` in this work. A melting point of 146 to 147 °C was found for `O=C1O[C@@H](CNC(=S)C(F)F)CN1c1ccc(N2CCS(=O)(=O)CC2)c(F)c1` in this work. A melting point of 128 to 130 °C was found for `O=C1O[C@@H](CNC(=S)C(F)F)CN1c1ccc(N2CCCS(=O)(=O)CC2)c(F)c1` in this work. A melting point of 174 to 176 °C was found for `O=C1O[C@@H](CNC(=S)C(F)F)CN1c1ccc(C2CCS(=O)(=O)CC2)cc1` in this work. A melting point of 168 to 169 °C was found for `O=C1O[C@@H](CNC(=S)C(F)F)CN1c1ccc(C2CCS(=O)(=O)CC2)c(F)c1` in this work.
